Reference: ChEMBL document CHEMBL3137667, “[Drug-induced liver injury; fourteenth updated edition of the bibliographic database of liver injuries and related drugs]” (Gastroenterol Clin Biol, 2004)

Columns and labels:
[1] = human
[2] = Highest frequency of acute liver toxicity observed during clinical trials, expressed as a percentage. [column '% AIGUE' in source]; conditions: human
[3] = human; remark: listed apart in the source
[4] = human; remark: listed apart in the source
[5] = Comments (NB not yet translated). [column 'COMMENTAIRES' in source]; conditions: human
[6] = Highest frequency of moderate liver toxicity observed during clinical trials, expressed as a percentage. [column '% BIOL' in source]; conditions: human
[7] = human; remark: listed apart in the source
[8] = Times to onset, minimal and maximal, observed in the indexed observations. [column 'DELAI' in source]; conditions: human
[9] = human; remark: listed apart in the source
[10] = human, serum
[11] = human; remark: listed apart in the source
[12] = human; remark: listed apart in the source
[13] = human, serum, 4383 h
[14] = human; remark: listed apart in the source
[15] = human; remark: listed apart in the source
[16] = human, serum; remark: listed apart in the source
[17] = human; remark: listed apart in the source
[18] = Proposed mechanism(s) of liver damage. [column 'MEC' in source]; conditions: human
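Throughout, for Hepatotoxicity (association with vascular disease): count of indexed literature references reporting vascular liver injury in humans, e.g. peliosis hepatitis, hepatic veno-occlusive disease or Budd-Chiari syndrome.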
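Throughout, for Hepatotoxicity (benign tumour): value is a count of indexed literature references citing a benign tumour confirmed by histopathology.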
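Throughout, for Hepatotoxicity (choleostasis): human cholestatic liver injury, shown by histopathology or by peak ALT or AST elevation over alkaline phosphatase ratio below 2, value counts indexed literature reports.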
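Throughout, for Hepatotoxicity (chronic liver disease): chronic liver injury confirmed by histopathology or persistently raised serum aminotransferase activity beyond 6 months, value given as the count of indexed literature references.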
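Throughout, for Hepatotoxicity (cirrhosis): value is a count of indexed literature references reporting cirrhosis confirmed by histopathology.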
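Throughout, for Hepatotoxicity (cytolytic): human cytolytic liver injury, shown by histopathology or by a ratio above 5 of peak ALT or AST elevation to alkaline phosphatase elevation, value counts indexed references.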
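Throughout, for Hepatotoxicity (granulomatous hepatitis): value is a count of indexed literature references reporting granulomatous liver disease confirmed by histopathology.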
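Throughout, for Hepatotoxicity (malignant tumour): malignant tumour confirmed by histopathology, value gives the count of indexed literature references reporting it.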
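Throughout, for Hepatotoxicity (severe hepatitis): human clinical data: severe hepatitis, meaning potentially life-threatening liver failure or clinically observed cases, the value counts how many indexed literature references report it.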
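Throughout, for Hepatotoxicity (steatosis): steatosis confirmed by histopathology, value is the count of indexed references.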

Compound	Hepatotoxicity (cirrhosis) [1]	Hepatotoxicity (acute) [2]	Hepatotoxicity (cytolytic) [3]	Hepatotoxicity (benign tumour) [4]	Hepatotoxicity (comment) [5]	Hepatotoxicity (moderate) [6]	Hepatotoxicity (malignant tumour) [7]	Hepatotoxicity (time to onset) [8]	Hepatotoxicity (choleostasis) [9]	Hepatotoxicity (moderate) [10]	Hepatotoxicity (steatosis) [11]	Hepatotoxicity (severe hepatitis) [12]	Hepatotoxicity (chronic liver disease) [13]	Hepatotoxicity (association with vascular disease) [14]	Hepatotoxicity (granulomatous hepatitis) [15]	Hepatotoxicity (acute) [16]	Hepatotoxicity (animal toxicity known) [17]	other results
CCCCNC(=O)NS(=O)(=O)c1ccc(N)cc1 [CARBUTAMIDE]	0	1.5%	1	0	RC/METAHEXAMIDE	30%	0	2 weeks - 4 weeks	0	1	0	3	0	0	0	5	yes	–
CCC[C@@H]1C[C@@H](C(=O)N[C@@H]([C@H]2O[C@H](SC)[C@H](O)[C@@H](O)[C@H]2O)[C@H](C)Cl)N(C)C1 [CLINDAMYCIN]	0	0%	2	0	#CBP	52%	0	2 days - 17 days	1	15	0	0	1	–	1	5	yes	–
CCOC(=O)C(C)(C)Oc1ccc(Cl)cc1 [CLOFIBRATE]	0	0%	2	1	RC/FENOFIBRATE	19.7%	0	2 months - 7 years	1	4	1	0	0	0	1	3	yes	–
COc1cccc2c1C(=O)c1c(O)c3c(c(O)c1C2=O)C[C@@](O)(C(C)=O)C[C@@H]3O[C@H]1C[C@H](N)[C@H](O)[C@H](C)O1 [DAUNORUBICIN]	0	0%	2	0	I/THIOGUANINE	68%	0	3 cures	0	3	0	0	0	2	0	2	yes	–
CNCCCN1c2ccccc2CCc2ccccc21 [DESIPRAMINE]	0	–	–	0	RC/IMIPRAMINE/TRIMIPRAMINE/CYAMEMAZINE	–	0	1 week - 1 month	–	4	0	–	0	0	–	–	yes	Hepatotoxicity (acute) ([2]; Liver): 0%; Hepatotoxicity (cytolytic) ([3]; Liver): 5; Hepatotoxicity (moderate) ([6]; Liver): 8.7%; Hepatotoxicity (choleostasis) ([9]; Liver): 1; Hepatotoxicity (mechanism) ([18]; Liver): Allergic; Hepatotoxicity (severe hepatitis) ([12]; Liver): 1; Hepatotoxicity (granulomatous hepatitis) ([15]; Liver): 0
C=CC[C@@H]1/C=C(\C)C[C@H](C)C[C@H](OC)[C@H]2O[C@@](O)(C(=O)C(=O)N3CCCC[C@H]3C(=O)O[C@H](/C(C)=C/[C@@H]3CC[C@@H](O)[C@H](OC)C3)[C@H](C)[C@@H](O)CC1=O)[C@H](C)C[C@@H]2OC [TACROLIMUS ANHYDROUS]	0	0%	0	0	MVO PELIOSE	37%	0	1 month - 3 months	0	1	0	0	0	2	0	0	yes	–
CN(C)[C@@H]1C(O)=C(C(N)=O)C(=O)[C@@]2(O)C(O)=C3C(=O)c4c(O)cccc4[C@@](C)(O)[C@H]3C[C@@H]12 [TETRACYCLINE]	0	0%	2	0	CHOLESTASE_PROLONGEE DUCTOPENIE	6.3%	0	3 days - 2 months	8	1	22	7	1	0	0	10	yes	–
Clc1ccccc1CN1CCc2sccc2C1 [TICLOPIDINE]	0	–	–	0	CHOLANGITE CHOLESTASE_PROLONGEE AC_ANTI-N	–	0	1 week - 3 years	–	–	1	–	1	0	–	–	yes	Hepatotoxicity (cytolytic) ([3]; Liver): 15; Hepatotoxicity (choleostasis) ([9]; Liver): 56; Hepatotoxicity (mechanism) ([18]; Liver): Allergic; Hepatotoxicity (granulomatous hepatitis) ([15]; Liver): 2
ClC=C(Cl)Cl [TRICHLOROETHYLENE]	2	0%	14	0	–	0%	0	1 day - 6 weeks	0	1	0	14	0	0	0	14	yes	Hepatotoxicity (mechanism) [18]: Toxic Metabolite
CC[C@]1(O)C[C@@H]2CN(CCc3c([nH]c4ccccc34)[C@@](C(=O)OC)(c3cc4c(cc3OC)N(C)[C@H]3[C@@](O)(C(=O)OC)[C@H](OC(C)=O)[C@]5(CC)C=CCN6CC[C@]43[C@@H]65)C2)C1 [VINBLASTINE]	0	0%	0	0	I/DOXORUBICINE	22.6%	0	2 cures	1	5	0	0	0	1	0	1	yes	–
BLEOMYCIN	0	0%	0	0	HYPERBILIRUBINEMIE	0%	0	–	0	1	0	0	0	0	0	0	yes	–
PARAFFIN	0	0%	0	0	LIPOGRANULOMES	0%	0	10 years	0	0	7	0	0	0	0	0	yes	–
